{"source": "patent US20250034168A1", "about": "“NITROGEN-CONTAINING HETEROCYCLIC DERIVATIVE PARP INHIBITOR AND USE THEREOF” (XIZANG HAISCO PHARMACEUTICAL CO., LTD., priority 2021, published 2025)", "key": {"[1]": {"test_system": "MDA-MB-436 subcutaneous transplanted tumor", "experiment": "Mouse MDA-MB-436 subcutaneous in vivo transplanted tumor model", "parameters": "species or system BALB/c nude mice", "method": "Human breast cancer MDA-MB-436 cells were placed in Leibovitz's L-15 medium (supplemented with 10 μg/mL insulin, 16 μg/mL glutathione, 10% fetal bovine serum and 1% double antibody) and cultured at 37° C. Conventional digestion treatment with trypsin was carried out twice a week for passage. When the cell saturation was 80%-90%, and the number reached the requirement, the cells were collected, counted, and inoculated. BALB/c nude mice (from Beijing Vital River Laboratory Animal Technology Co., Ltd.) were subcutaneously inoculated with 0.2 mL (10×10^6) of MDA-MB-436 cells (plus matrigel, with the volume ratio of 1:1) on the right back. When the average tumor volume reached about 180 mm^3, grouping and administration were performed (marked as Day 0). The solvent group was given 5% DMSO, 30% PEG400 and 65% of 20% sulfobutyl-β-cyclodextrin solution, and the administration group was given compound 14 (Day 0-Day 10:1 mg/kg; Day 11-Day 28:0.1 mg/kg). The administration frequency was once a day, the administration cycle was 29 days, and the drug withdrawal observation period was set to 14 days. After grouping, the tumor diameter was measured twice a week with a vernier caliper. The formula for calculating the tumor volume was: V=0.5×a×b^2, where a and b represented the long and short diameters of the tumor, respectively. The tumor inhibitory effect of compound 14 was evaluated by TGI (%)=[(1−(average tumor volume at the end of administration in the treatment group−average tumor volume at the beginning of administration in the treatment group))/(average tumor volume at the end of treatment in the solvent control group−average tumor volume at the beginning of treatment in the solvent control group)]×100%. The tumor growth curve and the animal body weight change curve were as shown in FIG. 1 and FIG. 2, respectively."}, "[2]": {"biological_target": "PARP-1 enzyme (Homo sapiens (Human), UniProt P09874)", "sequence (P09874 whole entry)": "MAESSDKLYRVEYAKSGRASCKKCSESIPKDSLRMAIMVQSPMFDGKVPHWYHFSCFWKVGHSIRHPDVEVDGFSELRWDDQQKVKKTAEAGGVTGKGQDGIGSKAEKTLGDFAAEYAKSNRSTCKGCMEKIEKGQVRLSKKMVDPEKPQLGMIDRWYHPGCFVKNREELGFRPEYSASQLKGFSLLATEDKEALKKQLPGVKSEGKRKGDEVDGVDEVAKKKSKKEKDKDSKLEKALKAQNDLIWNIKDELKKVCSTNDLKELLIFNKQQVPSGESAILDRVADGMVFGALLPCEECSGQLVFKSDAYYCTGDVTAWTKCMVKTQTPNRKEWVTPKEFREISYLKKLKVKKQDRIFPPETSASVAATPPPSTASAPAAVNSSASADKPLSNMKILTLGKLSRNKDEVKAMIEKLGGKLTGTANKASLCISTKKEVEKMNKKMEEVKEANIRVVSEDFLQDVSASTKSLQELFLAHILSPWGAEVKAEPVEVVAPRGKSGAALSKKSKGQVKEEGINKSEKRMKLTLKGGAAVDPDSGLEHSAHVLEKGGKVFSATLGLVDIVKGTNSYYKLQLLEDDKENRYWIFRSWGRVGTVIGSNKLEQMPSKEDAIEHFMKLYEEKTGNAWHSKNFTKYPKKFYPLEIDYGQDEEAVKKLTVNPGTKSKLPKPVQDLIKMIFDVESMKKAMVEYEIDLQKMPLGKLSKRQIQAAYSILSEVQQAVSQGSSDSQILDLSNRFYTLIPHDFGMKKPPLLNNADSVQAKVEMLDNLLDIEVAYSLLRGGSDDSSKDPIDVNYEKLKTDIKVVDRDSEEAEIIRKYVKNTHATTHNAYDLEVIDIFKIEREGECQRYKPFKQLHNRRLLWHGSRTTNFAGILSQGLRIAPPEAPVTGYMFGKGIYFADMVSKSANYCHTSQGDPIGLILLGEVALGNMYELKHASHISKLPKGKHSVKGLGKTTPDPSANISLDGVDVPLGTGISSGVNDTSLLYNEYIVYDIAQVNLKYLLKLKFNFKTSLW", "experiment": "PARP-1 enzyme activity test", "format": "biochemical", "method": "PARP-1 chemical […] detection kit was purchased from BPS Bioscience. The histone solution in the kit was diluted 5× with 1×PBS, and 25 μL of the diluted histone solution was added to a microwell plate and incubated overnight at 4° C. After the incubation, the plate was washed three times with PBST (0.05% Tween-20). 100 μL of the blocking solution was added to the microwell plate and incubated at 25° C. for 90 minutes. After the incubation, the plate was washed three times with PBST. 2.5 μL of compounds at different concentrations diluted in test buffer and 12.5 μL of substrate mixed solution (1.25 μL 10×PARP test buffer; 1.25 μL 10×PARP test mixed solution; 2.5 μL Activated DNA, 7.5 μL double-distilled water) were added to the microwell plate. The PARP-1 enzyme was diluted to 2 ng/μL, 10 μL of the diluent was added to the microwell plate, and the reaction system was incubated at 25° C. for 60 minutes.\n(§1) After the incubation, the plate was washed three times with PBST. Streptavidin-HRP was diluted 50× with a blocking solution, and 25 μL of the diluent was added to the microwell plate and incubated at 25° C. for 30 minutes. After the incubation, the plate was washed three times with PBST. ELISA ECL substrate A and substrate B were mixed at a ratio of 1:1 (v/v), 50 μL of the mixture was added to the microwell plate, and the chemiluminescence value was read.\nThe inhibition rate was calculated according to formula 1, where RLUsample was the readout of the compound well, RLUmax was the readout of the solvent control well, and RLUmin was the readout of the control well without the PARP-1 enzyme. Curve fitting was performed by four parameters (log(inhibitor) vs. response—Variable slope) using GraphPad Prism software, and the IC50 value was calculated."}, "[3]": {"experiment": "Pharmacokinetic test in rats", "format": "in vivo, SD rats", "method": "• 5.1.1 Experimental animals: male SD rats, about 220 g, 6-8 weeks old, 6 rats/compound, purchased from Chengdu Ddossy Experimental Animals Co., Ltd. • 5.1.2 Experimental design: on the day of the test, 6 SD rats were randomly grouped according to their body weight; the animals were fasted with water available for 12 to 14 h one day before the administration, and were fed 4 h after the administration.\nBefore and after the administration, 0.15 ml of blood was taken from the orbit of the animals under isoflurane anesthesia and placed in an EDTAK2 centrifuge tube. The blood was centrifuged at 5000 rpm and 4° C. for 10 min to collect plasma. The blood collection time points for the intravenous administration group and intragastric administration group were: 0, 5 min, 15 min, 30 min, 1 h, 2 h, 4 h, 6 h, 8 h, and 24 h. Before analysis and detection, all samples were stored at −80° C., and a quantitative analysis of samples was performed using LC-MS/MS."}, "[4]": {"biological_target": "PARP2 (Homo sapiens (Human), UniProt Q9UGN5)", "sequence (Q9UGN5 whole entry)": "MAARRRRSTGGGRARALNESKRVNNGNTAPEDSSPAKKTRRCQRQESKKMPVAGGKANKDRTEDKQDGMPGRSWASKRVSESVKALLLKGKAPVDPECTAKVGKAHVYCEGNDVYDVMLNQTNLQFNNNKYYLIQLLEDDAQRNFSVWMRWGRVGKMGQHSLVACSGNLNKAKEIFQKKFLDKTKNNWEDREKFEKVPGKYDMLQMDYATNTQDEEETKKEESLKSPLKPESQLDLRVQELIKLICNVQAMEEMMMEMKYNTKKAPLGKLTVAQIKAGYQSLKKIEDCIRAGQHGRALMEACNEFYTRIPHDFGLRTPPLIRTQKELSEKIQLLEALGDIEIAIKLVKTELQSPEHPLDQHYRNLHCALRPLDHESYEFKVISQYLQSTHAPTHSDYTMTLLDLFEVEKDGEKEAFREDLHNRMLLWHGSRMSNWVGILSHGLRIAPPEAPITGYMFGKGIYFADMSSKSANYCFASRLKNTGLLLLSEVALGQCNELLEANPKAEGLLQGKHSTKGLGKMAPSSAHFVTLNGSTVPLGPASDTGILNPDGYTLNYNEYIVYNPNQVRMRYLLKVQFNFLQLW", "experiment": "PARP2 enzyme activity test", "format": "biochemical", "method": "PARP2 and PARP7 chemical […] detection kits were both purchased from BPS Bioscience. The histone solution in the kit was diluted 5× with 1×PBS, and 25 μL of the diluted histone solution was added to a microwell plate and incubated overnight at 4° C. After the incubation, the plate was washed three times with PBST (0.05% Tween-20). 100 μL of the blocking solution was added to the microwell plate and incubated at 25° C. for 90 minutes. After the incubation, the plate was washed three times with PBST. 2.5 μL of compound 4 diluted in test buffer and 5 μL of substrate mixed solution were added to the microwell plate. 5 μL of the diluted PARP enzyme was added to the microwell plate, and the reaction system was incubated at 25° C. for 60 minutes.\nas §1, with “(v/v), 25” for “(v/v), 50”, “read. […]” for “read.”"}, "[5]": {"settings": "male, Sprague-Dawley, iv, rat plasma, i.v. 2.5 mg/kg"}}, "data": [{"molecule": "CCc1cc2ncc(CN3CC=C(c4ccc(C(=O)NC)nc4)CC3)cc2[nH]c1=O", "note": "[Compound 14, 1′-((7-ethyl-6-oxo-5,6-dihydro-1,5-naphthyridin-3-yl)methyl)-N-methyl-1′,2′,3′,6′-tetrahydro-[3,4′-bipyridine]-6-carboxamide]", "values": [{"measurement": "body weight of the animals", "setting": "[1]; Day 0-Day 10: 1 mg/kg, Day 11-Day 28: 0.1 mg/kg, once a day", "value": "no significant decrease"}, {"measurement": "TGI", "setting": "[1]; after 28 days of administration, Day 0-Day 10: 1 mg/kg, Day 11-Day 28: 0.1 mg/kg, once a day", "value": 121, "unit": "%"}, {"measurement": "tumor growth after drug withdrawal", "setting": "[1]; drug withdrawal observation period 14 days", "value": "did not grow again"}, {"measurement": "IC50", "setting": "[2]", "value": 0.59, "unit": "nM"}, {"measurement": "AUC(0-t)", "setting": "[3]; [5]", "value": 84.2, "unit": "µg·h/mL"}, {"measurement": "clearance", "setting": "[3]; [5]", "value": 0.494, "unit": "mL/min/kg"}, {"measurement": "Vd", "setting": "[3]; male, Sprague-Dawley, iv, rat plasma, i.v. 2.5 mg/kg, read-out: Vdss", "value": 0.164, "unit": "L/kg"}, {"measurement": "AUC(0-t)", "setting": "[3]; male, Sprague-Dawley, po, rat plasma, i.g. 10 mg/kg", "value": 248, "unit": "µg·h/mL"}, {"measurement": "F", "setting": "[3]; rat, i.g. 10 mg/kg", "value": 73.8, "unit": "%"}, {"measurement": "IC50", "setting": "[4]", "value": 31, "unit": "nM"}]}]}
